The target in this assay is T1, tyrosyl-DNA phosphodiesterase 1 (TDP1) (Homo sapiens, UniProt Q9NUW8).
T1 construct: catalytic domain of human TDP1
The experiment in a line: Gyrasol fluorescence quench assay, FITC-phosphotyrosyl […]mer oligonucleotide substrate, recombinant TDP1. Format: biochemical.

Like-named read-outs stand apart in the source and are kept apart here.

T1 sequence (Q9NUW8 149-608 limits assumed): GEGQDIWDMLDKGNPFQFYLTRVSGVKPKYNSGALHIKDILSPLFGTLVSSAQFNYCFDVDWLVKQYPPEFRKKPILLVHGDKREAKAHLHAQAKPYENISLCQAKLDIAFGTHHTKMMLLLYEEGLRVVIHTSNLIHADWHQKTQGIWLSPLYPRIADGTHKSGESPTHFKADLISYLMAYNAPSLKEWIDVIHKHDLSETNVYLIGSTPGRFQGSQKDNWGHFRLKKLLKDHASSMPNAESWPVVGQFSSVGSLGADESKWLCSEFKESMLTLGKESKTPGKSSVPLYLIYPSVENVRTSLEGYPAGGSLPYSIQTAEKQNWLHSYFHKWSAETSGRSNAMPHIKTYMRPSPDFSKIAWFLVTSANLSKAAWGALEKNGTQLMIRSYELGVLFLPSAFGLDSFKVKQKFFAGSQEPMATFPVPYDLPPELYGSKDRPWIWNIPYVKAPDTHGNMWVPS

In the case of `[O]=[V]([OH])([OH])[OH]` [sodium orthovanadate], the IC50 came out at 4 µM.

Take `Cc1ccc(C(=O)Nc2ccc(S(=O)(=O)O)c3cc(S(=O)(=O)O)cc(S(=O)(=O)O)c23)cc1NC(=O)c1cccc(NC(=O)Nc2cccc(C(=O)Nc3cc(C(=O)Nc4ccc(S(=O)(=O)O)c5cc(S(=O)(=O)O)cc(S(=O)(=O)O)c45)ccc3C)c2)c1` [Suramin]: for the setting “read-out: IC50”, the IC50 stood at 5 µM.
